The values that follow come from patent publication US10961539B2, “Promoter system inducing expression by 3-hydroxypropionic acid and method for biological production of 3-hydroxypropionic acid using same” (NOROO IC Co., Ltd., priority 2015, dated 2021).

Structures are written as SMILES.

In test [1] the test system is 3hpdh, 3hibdhIV, and mmsadh. Briefly: Inducer specificity of gene expression (FIGS. 4 and 5). The class given is cell-based, Pseudomonas denitrificans. Conditions: for amplification of the genes 3hpdh, 3hibdhIV and mmsadh by the compound: FIGS. 4 and 5; for inducer of expression of mmsadh and 3hibdhIV: FIG. 4.
The test system of the next test is 3hpdh. Briefly: RT-PCR relative mRNA level of 3-HP catabolic gene. As to conditions: FIG. 5.

Consider `CCC(=O)O` [propionic acid], for which, in test [1], the “amplification of the genes 3hpdh, 3hibdhIV and mmsadh by the compound” value (from here on “amplification of the genes 3hpdh”) is reported as “not induced”.
For `CC(O)C(C)O` (centres unmarked) [2,3-butandiol], in test [1], the “amplification of the genes 3hpdh” value is reported as “not induced”.
In the case of `CC(O)C(=O)O` (centres unmarked) [lactic acid], the “amplification of the genes 3hpdh” value in test [1] is listed as “not induced”.
Take `CC(CO)C(=O)O` (centres unmarked) [3HIB, 3-hydroxyisobutyrate]: in test [1], the “inducer of expression of mmsadh and 3hibdhIV” value is recorded as “acts as an inducer”; the “amplification of the genes 3hpdh” value is given as “amplified”. In addition, the “inducer of expression of 3hpdH” value in the test on 3hpdh is reported as “acts as an inducer”.
On to `CC(C)[C@H](N)C(=O)O` [L-valine], for which, in test [1], the “inducer of expression of mmsadh and 3hibdhIV” value was “acts as an inducer”; the “amplification of the genes 3hpdh” value is on record as “induced”. For the same compound, in the test on 3hpdh, the “inducer of expression of 3hpdH” value was “acts as an inducer”.
Turning to `OCCCO` [1,3-propanediol], the “amplification of the genes 3hpdh” value in test [1] was “not induced”.
On the same count and under the same terms, in the case of `CC(=O)O` [acetic acid] it was “not induced”.
As to `CC(O)CC(=O)O` (centres unmarked) [3-HB, 3-hydroxybutyrate], in test [1], the “inducer of expression of mmsadh and 3hibdhIV” value was “acts as an inducer”; the “amplification of the genes 3hpdh” value is given as “amplified”. In addition, the “inducer of expression of 3hpdH” value in the test on 3hpdh is recorded as “acts as an inducer”.
